Laboratory results: patent publication US6221914A, “Sulfonamide bridging compounds that inhibit tryptase activity” (Array Biopharma Inc., priority 1998, dated 2001)

Experiments:
Type in all cases: biochemical
[1] = target: T1, Bovine pancreatic Trypsin (Bos taurus, UniProt P00760); assay: Ki determination, bovine pancreatic trypsin (N-a-Benzoyl-L-Arg-pNA); conditions: 50 mM Tris-HCl, pH 8.2, 20 mM CaCl2; read-out: Experimentally Determined Ki, Trypsin
T1 construct: from tissue; host or cells: bovine pancreas
T1 sequence (P00760 24-246): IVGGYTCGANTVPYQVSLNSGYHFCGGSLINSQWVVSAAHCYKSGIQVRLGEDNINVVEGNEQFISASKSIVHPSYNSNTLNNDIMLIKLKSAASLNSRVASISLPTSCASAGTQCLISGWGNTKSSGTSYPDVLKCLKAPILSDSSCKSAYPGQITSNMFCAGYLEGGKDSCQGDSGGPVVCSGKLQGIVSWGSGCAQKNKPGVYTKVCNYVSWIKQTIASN
Experimental: (§1) Protease inhibition was assayed according to published procedures with minor modifications using various proteases and specific chromogenic peptide p-nitroanilide substrates. Assays were performed in Costar ultra-low cluster 96-well microtiter plate (Costar Corning Corp., Cambridge Mass.). Each protease was incubated with various concentrations of the test compound for 15 min. at 37° C. or as otherwise indicated, in specific assay buffer, and the residual activity was then measured by addition of the substrate. p-Nitroaniline produced by the proteolysis was determined by measuring the change in absorbance at 405 nm on a SpectraMAX 340 plate reader (Molecular devices, Sunnyvale, Calif.).
(§2) 1. The inhibition constant, Ki is calculated from individual data points using the equation for a tight-binding inhibitor (See Beith, "Proteinase Inhibitors-Proceedings of 2nd Int. Res. Conference", Fritz, et al. eds, New York, p.4463-4469 (1974)):
(§3) vi /vo [((Ki '+[I]+[E]o)^2 -4 [I]o
(§4) [E]o)^1/2 (Ki '+[I]o -[E]o)]/2[E]o
(§5) where Ki ' is apparent inhibition constant; vi and vo are the inhibited and uninhibited rates, respectively; [I]o and [E]o are the total concentrations of inhibitor and enzyme, respectively.
(§6) [note: [E]o is determined by active site titration of enzyme]
(§7) The Ki values are obtained by correcting Ki ' values for the effect of substrate concentration according to: [formula]
(§8) 2. Other inhibition data (Ki >>[E]o), the Ki is calculated from using the equations for a competitive inhibitor: [formula]
Bovine pancreatic Trypsin (TPCK-treated) activity was determined by using N-a-Benzoyl-L-Arg-pNA in 50 mM Tris-HCl, pH 8.2, 20 mM CaCl2 (See Somorin, et al., J. Biochem. 85, 157-162 (1979)).
(§9) The inhibition constant (Ki) of the test compounds against each proteolytic enzyme was determined according to Zitnik et al., Biochem. Biophys. Res. Commun. 232, 687-697 (1997)).

Human plasma thrombin = target: T2, Human plasma thrombin (Homo sapiens, UniProt P00734); assay: Ki determination, human plasma thrombin (H-D-Phe-Pip-Arg-pNA); conditions: 50 mM Tris-HCl, pH 8.3, 100 mM NaCl, 1% BSA; read-out: Experimentally Determined Ki, Thrombin
T2 construct: from tissue; host or cells: human plasma
Experimental: as §1, §2, §3, §4, §5, §6, §7, §8
Human plasma thrombin activity was determined by using H-D-Phe-Pip-Arg-pNA in 50 mM Tris-HCl, pH 8.3, 100 mM NaCl, 1% BSA (See Lottenberg, et al. Meth. Enzymol. 80, 341-361 (1981)).
as §9

Human plasma kallikrein = target: T3, Human plasma kallikrein (Homo sapiens, UniProt P03952); assay: Ki determination, human plasma kallikrein (H-D-Prolyl-Phe-Arg-pNA); conditions: 50 mM Tris-HCl, pH 7.8, 200 mM NaCl, 0.05% BSA; read-out: Experimentally Determined Ki, Plasma Kallikrein
T3 construct: from tissue; host or cells: human plasma
T3 sequence (P03952 391-638 limits assumed): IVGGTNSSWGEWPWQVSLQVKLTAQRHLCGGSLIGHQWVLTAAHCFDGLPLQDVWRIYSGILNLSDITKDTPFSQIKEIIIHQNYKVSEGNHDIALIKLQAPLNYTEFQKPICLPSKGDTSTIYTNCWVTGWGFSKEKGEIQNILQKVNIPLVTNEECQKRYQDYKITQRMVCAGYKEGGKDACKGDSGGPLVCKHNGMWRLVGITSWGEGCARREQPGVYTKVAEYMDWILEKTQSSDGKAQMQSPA
T3 sequence (P03952 20-390 partner limits assumed): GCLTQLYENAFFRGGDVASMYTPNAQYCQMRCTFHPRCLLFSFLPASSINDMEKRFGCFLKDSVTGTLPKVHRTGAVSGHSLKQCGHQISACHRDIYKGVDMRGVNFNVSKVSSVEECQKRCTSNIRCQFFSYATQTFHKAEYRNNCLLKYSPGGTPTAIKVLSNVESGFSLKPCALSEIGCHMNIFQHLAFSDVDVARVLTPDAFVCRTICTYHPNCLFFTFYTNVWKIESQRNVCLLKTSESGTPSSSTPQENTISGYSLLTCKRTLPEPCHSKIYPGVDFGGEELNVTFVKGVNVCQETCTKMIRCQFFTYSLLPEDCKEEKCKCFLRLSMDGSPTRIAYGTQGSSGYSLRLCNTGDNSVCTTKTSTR
Experimental: as §1, §2, §3, §4, §5, §6, §7, §8
I. Human Plasma and r-Tissue Kallikrein
Human plasma and r-tissue kallikrein activity were determined in 50 mM Tris-HCl, pH 7.8, 200 mM NaCl, 0.05% BSA by using H-D-Prolyl-Phe-Arg-pNA and DL-Val-Leu-Arg-pNA, respectively (See Lottenberg, et al., Meth. Enzymol. 80, 341-361 (1981)).
as §9

[2] = target: T4, Human Neutrophil Cathepsin G (Homo sapiens, UniProt P08311); assay: Ki determination, human neutrophil cathepsin G (N-Suc-Ala-Ala-Pro-Phe-pNA); conditions: 625 mM Tris-HCl, pH 7.5, 2.5 mM MgCl2, 0.125% Brij 35; read-out: Experimentally Determined Ki, Cathepsin G
T4 construct: from tissue; host or cells: human neutrophils
T4 sequence (P08311 21-255): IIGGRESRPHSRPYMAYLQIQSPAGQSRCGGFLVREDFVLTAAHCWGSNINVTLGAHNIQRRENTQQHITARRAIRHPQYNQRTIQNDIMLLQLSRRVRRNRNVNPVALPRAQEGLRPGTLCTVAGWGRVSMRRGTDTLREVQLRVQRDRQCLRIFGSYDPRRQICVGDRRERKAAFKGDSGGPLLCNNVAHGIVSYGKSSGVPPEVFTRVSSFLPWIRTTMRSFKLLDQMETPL
Experimental: as §1, §2, §3, §4, §5, §6, §7, §8
Human Neutrophil Cathepsin G activity was determined by using N-Suc-Ala-Ala-Pro-Phe-pNA in 625 mM Tris-HCl, pH 7.5, 2.5 mM MgCl2, 0.125% Brij 35 (See Groutas et al., Arch. Biochem. Biophys. 294, 144-146 (1992)).
as §9

[3] = target: T5, Bovine Pancreatic Chymotrypsin (Bos taurus, UniProt P00766); assay: Ki determination, bovine pancreatic chymotrypsin (N-Suc-Ala-Ala-Pro-Phe-pNA); conditions: 100 mM Tris-HCl, pH 7.8, 10 mM CaCl2; read-out: Experimentally Determined Ki, Chymotrypsin
T5 construct: from tissue; host or cells: bovine pancreas
Experimental: as §1, §2, §3, §4, §5, §6, §7, §8
Bovine Pancreatic Chymotrypsin activity was determined by using N-Suc-Ala-Ala-Pro-Phe-pNA in 100 mM Tris-HCl, pH 7.8, 10 mM CaCl2 (See Delmar, et al., J. Biochem. 85, 157-162 (1979)).
as §9

Compound | Ki [1] | Ki (Human plasma thrombin) | Ki (Human plasma kallikrein) | Ki [2] | Ki [3]
N=C(N)c1ccc(C(=O)NCc2ccc(OCCCOc3ccc(CNS(=O)(=O)c4cccc(C(=N)N)c4)cc3)cc2)cc1 [Example 86, 4-Carbamimidoyl-N-[4-(3-{4-[(3-carbamimidoyl-benzenesulfonylamino)-methyl]-phenoxy}-propoxy)-benzyl]-benzamide] | 2.1 µM | > 100 µM | 1.4 µM | > 100 µM | > 100 µM
N=C(N)c1cccc(C(=O)NCc2ccc(OCCOc3ccc(CNC(=O)c4cccc(C(=N)N)c4)cc3)cc2)c1 [Example 65, 1,2-Bis-{4-[(3-carbamimidoyl-benzoylamino)-methyl]-phenoxy}-ethane] | 2.2 µM | > 100 µM | 24 µM | > 100 µM | > 100 µM
N=C(N)c1ccc(C(=O)NCc2ccc(OCCCOc3ccc(CNC(=O)c4ccc(CN)cc4)cc3)cc2)cc1 [Example 87, N-[4-(3-{4-[(4-Aminomethyl-benzoylamino)-methyl]-phenoxy}-propoxy)-benzyl]-4-carbamimidoyl-benzamide] | 2.8 µM | > 100 µM | 3.5 µM | > 100 µM | > 100 µM
N=C(N)c1ccc(C(=O)NCc2ccc(OCCCCCCCOc3ccc(CNC(=O)c4ccc(C(=N)N)cc4)cc3)cc2)cc1 [Example 58, 1,7-Bis-{4-[(4-carbamimidoyl-benzenecarbonylamino)-methyl]-phenoxy}-heptane] | 1.5 µM | > 100 µM | 46 µM | > 100 µM | > 100 µM
N=C(N)c1ccc(C(=O)NCc2ccc(OCCCOc3ccc(CNC(=O)c4cccc(C(=N)N)c4)cc3)cc2)cc1 [Example 85, 4-Carbamimidoyl-N-[4-(3-{4-[(3-carbamimidoyl-benzoylamino)-methyl]-phenoxy}-propoxy)-benzyl]-benzamide] | 1.1 µM | > 100 µM | 1.7 µM | > 100 µM | > 100 µM
N=C(N)c1cccc(S(=O)(=O)NCc2ccc(OCCCCCCCOc3ccc(CNS(=O)(=O)c4cccc(C(=N)N)c4)cc3)cc2)c1 [Example 45, 1,7-Bis-{4-[(3-carbamimidoyl-benzenesulfonylamino)-methyl]-phenoxy}-heptane] | 12 µM | > 100 µM | 34 µM | > 100 µM | > 100 µM
N=C(N)c1ccc(C(=O)NCc2cccc(OCCCCCOc3cccc(CNC(=O)c4ccc(C(=N)N)cc4)c3)c2)cc1 [Example 76, 1,5-Bis-{3-[(4-carbamimidoyl-benzenecarbonylamino)-methyl]-phenoxy}-pentane] | 0.83 µM | 21 µM | 2.8 µM | > 100 µM | > 100 µM
N=C(N)c1ccc2[nH]c(CC(=O)NCc3ccc(OCCCCOc4ccc(CNC(=O)Cc5nc6cc(C(=N)N)ccc6[nH]5)cc4)cc3)nc2c1 [Example 109] | 11.4 µM | > 100 µM | 2.5 µM | > 100 µM | 14.7 µM
N=C(N)c1cccc(S(=O)(=O)NCc2ccc(OCCOc3ccc(CNS(=O)(=O)c4cccc(C(=N)N)c4)cc3)cc2)c1 [Example 51, 1,2-Bis-{4-[(3-carbamimidoyl-benzenesulfonylamino)-methyl]-phenoxy}-ethane] | 5.2 µM | > 100 µM | 12 µM | > 100 µM | > 100 µM
N=C(N)c1ccc2cc(C(=O)NCc3ccc(OCCOc4ccc(CNC(=O)c5ccc6cc(C(=N)N)ccc6c5)cc4)cc3)ccc2c1 [Example 100, 1,2-Bis-{4-[(6-carbamimidoylnaphthalene-2-carbonylamino)-methyl]-phenoxy}-ethane] | 0.15 µM | > 100 µM | > 100 µM | > 100 µM | 18 µM
N=C(N)c1cccc(C(=O)NCc2ccc(OCCCCCOc3ccc(CNC(=O)c4cccc(C(=N)N)c4)cc3)cc2)c1 [Example 55, 1,5-Bis-{4-[(3-carbamimidoyl-benzenecarbonylamino)-methyl]-phenoxy}-pentane] | 0.9 µM | > 100 µM | 11 µM | > 100 µM | > 100 µM
N=C(N)c1ccc(C(=O)NCc2ccc(OCCCCOc3ccc(CNC(=O)c4ccc(C(=N)N)cc4)cc3)cc2)cc1 [Example 60, 1,4-Bis-{4-[(4-carbamimidoyl-benzenecarbonylamino)-methyl]-phenoxy}-butane] | 1.5 µM | > 100 µM | 6.3 µM | > 100 µM | > 100 µM
N=C(N)c1cccc(S(=O)(=O)NCc2ccc(OCCCOc3ccc(CNS(=O)(=O)c4cccc(C(=N)N)c4)cc3)cc2)c1 [Example 49, 3,1-Bis-{4-[(3-carbamimidoyl-benzenesulfonylamino)-methyl]-phenoxy}-propane] | 2.8 µM | > 100 µM | 6 µM | > 100 µM | > 100 µM
N=C(N)c1cccc(S(=O)(=O)NCc2ccc(OCCCCCOc3ccc(CNS(=O)(=O)c4cccc(C(=N)N)c4)cc3)cc2)c1 [Example 41, 1,5-Bis-{4-[(3-carbamimidoyl-benzenesulfonylamino)-methyl]-phenoxy}-pentane] | 2.5 µM | > 100 µM | 18 µM | > 100 µM | > 100 µM
N=C(N)c1cccc(C(=O)NCc2cccc(OCCCCCOc3cccc(CNC(=O)c4cccc(C(=N)N)c4)c3)c2)c1 [Example 77, 1,5-Bis-{3-[(3-carbamimidoyl-benzenecarbonylamino)-methyl]-phenoxy}-pentane] | 1.4 µM | > 100 µM | 2.9 µM | > 100 µM | > 100 µM
